# Key:
# isolated pathogens = assay: Resistance of pathogens isolated in the trial to study medication; conditions: at baseline or developed during the trial
# Description: (§1) Resistance to ampicillin/sulbactam was documented in 1 S. aureus isolate.
# diabetic foot infection [1] = assay: Example 3: parenteral treatment of a human with a diabetic foot infection; format: in vivo; conditions: 600 mg parenteral, two times daily for 7-28 days; person
# Protocol: A 70 kilo […] with a history of diabetes and infected foot ulcerations, also known as diabetic foot, is treated with a parenteral preparation of 600 mg (S)-N-[[3-[3-fluoro-4-[4-(morpholinyl)[…]]-2-oxo-5-oxazolidinyl]methyl]acetamide. The preparation is administered two times daily for 7-28 days. The patient is evaluated by clinical observations and with x-rays for osteomyelitis, including with a “probe-to bone” test and a bone biopsy if the patient has an open wound.
# [2] = tested on: baseline gram-positive pathogen; assay: Microbiological success rate in the diabetic foot infection trial; format: in vivo, human
# Description: (§2) The clinically evaluable population comprised 317 patients, most of whom were male and white with a mean age of 63 years old. Patients with critical limb ischemia were excluded, but those with osteomyelitis could be included. […] Treatment was for 7-28 days with the mean treatment duration shown below in Table 1. Patients could be switched to PO therapy at the investigator's discretion.
# as §1
# [3] = tested on: aerobic gram positive bacteria; conditions: including streptococci, MRSA and VRE; cited from earlier work
# diabetic foot infection [4] = assay: Open-label, comparator-controlled trial in patients with diabetic foot infection: clinical cure; format: in vivo, human
# Description: as §2
# (§3) The most common baseline pathogens were S. aureus (158 isolates, 31 of which were methicillin-resistant S. aureus (MRSA), coagulase-negative staphylococci (65), enterococci (60) and Streptococcus agalactiae (52). To cover methicillin-resistant S. aureus in the aminopenicillin regimen, IV vancomycin (1 g every 12 h or per dosing guidelines) was added to the amino/β-LI treated patients with MRSA isolated from the study wound. To cover possible resistant gram-negative rods in either regimen, IV aztreonam (1-2 g, IV, every 8-12 h) was permitted in both treatment arms for suspected/documented gram-negative pathogens. This is shown below in Table 2.
# Infections were defined by clinical signs and symptoms and categorized as cellulites, deep soft tissue infections, infected ulcer, septic arthritis, paronychia, abscess or osteomyelitis. […] The most common types (sometimes combined) of infections were: ulcers (78%); cellulitis (45%); deep soft tissue (15%); paronychia (6%). Most patients in both arms were treated as outpatients (66%) with only oral therapy (73%) and with a single agent (87%). Clinical characteristics of the infected sites at baseline were similar in the treatment groups; most common were tenderness (97%), induration (95%), local warmth (92%), non-purulent drainage (82%) and erythema (47%).
# Debridement and other surgical procedures (short of complete resection/amputation) were allowed and wounds were off-loaded (mechanical stress on the wounded area was avoided) as needed. There were no significant differences in adverse events in the two treatment arms.
# [5] = tested on: Staphylococcus agalactiae; assay: Clinical outcome by baseline pathogen (MITT population); format: in vivo; conditions: baseline pathogen S. agalactiae
# Description: as §2, §3
structure (smiles),measurement,setting,value
"CC(=O)NC[C@H]1CN(c2ccc(N3CCOCC3)c(F)c2)C(=O)O1 [Linezolid, (S)-N-[[3-[3-fluoro-4-(4-morpholinyl)phenyl]-2-oxo-5-oxazolidinyl]methyl]acetamide]",resistance of isolated pathogens to the study drug,isolated pathogens,None of the isolated pathogens was resistant
same,clinical observation of the ulcerated area after the course of treatment,diabetic foot infection [1],tissue destruction in the ulcerated area has visibly ceased and tissue repair has begun
same,microbiological success rates,[2]; microbiologically evaluable (ME) patients,72.2%
same,Microbiol. Efficacy (% Efficacy of the Evaluatable Population),"[2]; microbiologically evaluable population, 212 patients",72%
same,antibacterial activity,[3],active against almost all aerobic gram positive bacteria
same,Clinical Efficacy (% Efficacy of the Evaluatable Population),"diabetic foot infection [4]; clinically evaluable population, 317 patients",83%
same,clinical outcome versus amino/β-LI,diabetic foot infection [4]; infected ulcers and non-osteomyelitis cases,clinically superior
same,clinically cured patients,"diabetic foot infection [4]; infected ulcers, FIG. 2",81.4%
same,Clinical cure rates,"diabetic foot infection [4]; intent-to-treat (ITT) and clinically evaluable (CE) populations, FIG. 1",comparable
same,overall clinical and micro-biological outcomes versus amino/β-LI,"diabetic foot infection [4]; mostly given alone, PO, to outpatients",at least as effective overall as amino/β-LI
same,clinical cure rate,diabetic foot infection [4]; patients with osteomyelitis (n=60),61.0%
same,clinical cure rate,diabetic foot infection [4]; patients without osteomyelitis,86%
same,clinical cure rate versus comparator,[5],significantly higher clinical cure rate
